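Grown in 96-well plates, cells were treated for 48 hours with each compound at five concentrations. Insufficient inhibition: endpoint recorded as highest concentration tested. GI50: concentration for 50% inhibition of growth. TGI is the concentration that stops growth completely.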

Some test systems named below: SF-539 CNS; LOX IMVI melanoma; HS 578T breast; HOP-62 NSCLC; SR leukemia; NCI/ADR-RES ovarian; SNB-75 CNS; UO-31 renal; HCT-116 colon; SK-OV-3 ovarian.
What all share (test): NCI tumour cell line growth inhibition, 48 h

`CCCCC(=O)N/N=C/c1cc(I)cc(I)c1O`: the GI50 with SF-539 CNS was 2.99 µM; in the assay on LOX IMVI melanoma, 2.62 µM; in the assay on HS 578T breast, 7.92 µM; in the assay on HOP-62 NSCLC, 3.67 µM; in the assay on SR leukemia it was 1.92 µM; in the assay on NCI/ADR-RES ovarian it was 2.58 µM. Further, the GI50 was 6.03 µM with SNB-75 CNS, 1.28 µM in the assay on UO-31 renal, 3.63 µM in the assay on HCT-116 colon and 3.4 µM in the assay on SK-OV-3 ovarian. In addition, the TGI came out at 12.8 µM with SF-539 CNS; 13.4 µM in the assay on LOX IMVI melanoma; 54.4 µM with HS 578T breast; 19.8 µM in the assay with HOP-62 NSCLC; 14.3 µM in the assay on SR leukemia; 20.1 µM in the assay on NCI/ADR-RES ovarian. For the same molecule, the TGI is 26.5 µM in the assay with SNB-75 CNS, 11.1 µM in the assay on UO-31 renal, 21.9 µM with HCT-116 colon and 20.7 µM in the assay on SK-OV-3 ovarian.
Consider `CN(C)CCNc1ccc([N+](=O)[O-])c2nc3ccccc3c(N)c12`, for which the TGI was 4.48 µM with SF-539 CNS; 2.11 µM with LOX IMVI melanoma; 8.2 µM in the assay with HS 578T breast; above 10 µM in the assay with HOP-62 NSCLC; 1.73 µM in the assay with SR leukemia; 2.45 µM with NCI/ADR-RES ovarian. Also, the TGI in the assay with SNB-75 CNS was 3.96 µM; with UO-31 renal it was 4.27 µM; in the assay on HCT-116 colon, 1.91 µM; in the assay with SK-OV-3 ovarian, 1.33 µM.
Regarding `O=C(Nc1ccc(Br)cc1)Nc1n[nH]c2ccccc12`, the GI50 is above 70.9 µM in the assay with SF-539 CNS; above 100 µM in the assay on LOX IMVI melanoma; 46.8 µM in the assay on HS 578T breast; above 100 µM in the assay on HOP-62 NSCLC; 4.78 µM in the assay on SR leukemia; above 100 µM in the assay on NCI/ADR-RES ovarian. Moreover, the GI50 with SNB-75 CNS was 34.4 µM; in the assay on UO-31 renal it was 25.8 µM; in the assay on HCT-116 colon it was 33.8 µM; in the assay with SK-OV-3 ovarian, above 33.7 µM. For the same molecule, the TGI in the assay with SF-539 CNS, with LOX IMVI melanoma, in the assay with HS 578T breast, with HOP-62 NSCLC, in the assay on SR leukemia and in the assay on NCI/ADR-RES ovarian was above 100 µM each time. Moreover, the TGI in the assay on SNB-75 CNS is above 82.7 µM; in the assay with UO-31 renal, above 100 µM; with HCT-116 colon it was above 100 µM; with SK-OV-3 ovarian, above 100 µM.
For `COc1cccc(/C=N\Nc2ccc([N+](=O)[O-])cn2)c1O`, the GI50 in the assay on SF-539 CNS is 2.93 µM; with LOX IMVI melanoma, 2.58 µM; with HS 578T breast it was 4.52 µM; in the assay with HOP-62 NSCLC, 3.89 µM; with SR leukemia it was 3.03 µM; in the assay on NCI/ADR-RES ovarian, 2.43 µM. Also, the GI50 was 8.78 µM in the assay with SNB-75 CNS, 1.74 µM in the assay with UO-31 renal, 3.04 µM in the assay with HCT-116 colon and 2.94 µM with SK-OV-3 ovarian. Further, the TGI in the assay with SF-539 CNS was 8.65 µM; in the assay on LOX IMVI melanoma, 14.6 µM; in the assay with HS 578T breast it was above 100 µM; in the assay with HOP-62 NSCLC, 25.5 µM; in the assay on SR leukemia, above 100 µM; in the assay on NCI/ADR-RES ovarian it was 28 µM. The TGI in the assay on SNB-75 CNS came out at 57.2 µM; in the assay with UO-31 renal it was 7.24 µM; in the assay with HCT-116 colon, 15.2 µM; in the assay on SK-OV-3 ovarian, 20.4 µM.
As for `CC(=O)/C=C/C1=C(c2cc3ccccc3s2)c2ccccc2CC1`, the GI50 was 27.2 µM in the assay on SF-539 CNS; 20.3 µM in the assay on LOX IMVI melanoma; 52.5 µM in the assay on HS 578T breast; 36.5 µM in the assay on HOP-62 NSCLC; 8.59 µM with SR leukemia; 30.9 µM in the assay with NCI/ADR-RES ovarian. The GI50 with SNB-75 CNS is 29.8 µM; in the assay with UO-31 renal it was 21 µM; in the assay on HCT-116 colon it was 20.7 µM; in the assay with SK-OV-3 ovarian, 67.9 µM. Further, the TGI in the assay with SF-539 CNS is 64.7 µM; with LOX IMVI melanoma it was 67.3 µM; in the assay with HS 578T breast, above 100 µM; with HOP-62 NSCLC, above 100 µM; in the assay with SR leukemia, above 100 µM; with NCI/ADR-RES ovarian, above 100 µM. The TGI is above 100 µM in the assay on SNB-75 CNS, 59.4 µM with UO-31 renal, 65.1 µM in the assay with HCT-116 colon and above 100 µM in the assay on SK-OV-3 ovarian.
Take `CC(C)(C)c1ccc([I+]c2ccc(C(C)(C)C)cc2)cc1`: the GI50 was 2.08 µM with SF-539 CNS; 1.31 µM in the assay with LOX IMVI melanoma; 1.98 µM in the assay on HS 578T breast; 1.83 µM in the assay on HOP-62 NSCLC; 0.935 µM in the assay on SR leukemia; 21.5 µM in the assay with NCI/ADR-RES ovarian. The GI50 in the assay with SNB-75 CNS was 1.44 µM; in the assay with UO-31 renal, 3.62 µM; with HCT-116 colon it was 1.25 µM; in the assay with SK-OV-3 ovarian it was 2.31 µM. Further, the TGI with SF-539 CNS worked out at 10.2 µM; with LOX IMVI melanoma, 2.74 µM; in the assay on HS 578T breast it was 7.69 µM; in the assay on HOP-62 NSCLC, 3.71 µM; with SR leukemia, 3.15 µM; in the assay with NCI/ADR-RES ovarian it was 89.5 µM. The TGI with SNB-75 CNS was determined as 6.1 µM; in the assay with UO-31 renal, 14.8 µM; with HCT-116 colon, 4 µM; with SK-OV-3 ovarian, 6.75 µM.
Turning to `CS(=O)(=O)CCNCc1ccc(-c2ccc3ncnc(Nc4ccc(OCc5cccc(C(F)(F)F)c5)cc4)c3c2)o1`, the GI50 was 4.66 µM in the assay on SF-539 CNS; 4.53 µM in the assay with LOX IMVI melanoma; 7.02 µM with HS 578T breast; 6.53 µM in the assay with HOP-62 NSCLC; 4.49 µM with SR leukemia; 7.19 µM in the assay on NCI/ADR-RES ovarian. Further, the GI50 with SNB-75 CNS was 8.21 µM; with UO-31 renal, 4.34 µM; with HCT-116 colon it was 5.07 µM; in the assay on SK-OV-3 ovarian, 9.25 µM. Further, the TGI in the assay on SF-539 CNS is 9.75 µM; in the assay with LOX IMVI melanoma it was 9.32 µM; in the assay with HS 578T breast, above 19.4 µM; in the assay with HOP-62 NSCLC, 16.6 µM; in the assay on SR leukemia, 16.7 µM; in the assay with NCI/ADR-RES ovarian it was above 25 µM. Further, the TGI in the assay with SNB-75 CNS was above 21.1 µM; in the assay on UO-31 renal, 10.2 µM; in the assay with HCT-116 colon it was 10 µM; in the assay with SK-OV-3 ovarian it was above 25 µM.
As to `O=C(COc1cccc(/C=C2\COc3ccccc3C2=O)c1)Nc1nccs1`, the GI50 in the assay on SF-539 CNS was 14.7 µM; in the assay with LOX IMVI melanoma it was 1.82 µM; in the assay on HS 578T breast, 2.67 µM; in the assay on HOP-62 NSCLC, 4.11 µM; in the assay with SR leukemia, 1.03 µM; in the assay on NCI/ADR-RES ovarian, 4.97 µM. Besides, the GI50 was 12.2 µM with SNB-75 CNS, 1.52 µM in the assay on UO-31 renal, 1.76 µM in the assay on HCT-116 colon and 17.4 µM in the assay with SK-OV-3 ovarian. Besides, the TGI stood at 31.2 µM in the assay on SF-539 CNS; 3.4 µM in the assay on LOX IMVI melanoma; 10.9 µM in the assay with HS 578T breast; 15.9 µM with HOP-62 NSCLC; 2.76 µM with SR leukemia; 21.8 µM in the assay on NCI/ADR-RES ovarian. In addition, the TGI with SNB-75 CNS stood at 24.6 µM; in the assay with UO-31 renal it was 2.91 µM; with HCT-116 colon it was 3.15 µM; in the assay with SK-OV-3 ovarian, 31.1 µM.

These data come from PubChem BioAssay (NCI).
